Data set [1] concerns primary cultured cortical nerve. Nature of the data set: Intracellular signaling proteins in damaged neurons. It counts as cell-based, rat. As to conditions: Aβ25-35 + PEP1. The procedure: A primary cultured cortical nerve was obtained from the cerebral cortex of the fetal rat on day 16 of the embryonic period. Briefly, the brain was rapidly removed from the rat, and placed in a petri dish containing cold phosphate-buffered physiological saline (HBSS). Single cells were isolated from the cerebral cortex, and added into a previously poly-L-lysine-coated Corning dish with a diameter of 100 mm, or a glass coverslip was placed in a 6- or 24-well plate. The cultured cells were cultured in DMEM (high glucose).
Two days after the cells were added, non-neuronal cells were removed through treatment of 5 μM cytosine arabinoside for 24 hours. Only the mature culture (7 days in the test tube) was used in this experiment. Approximately 79.7% of a group of neurons was obtained from the neurons of a primary cortex. […]

Data set [2] deals with NSCs. Nature of the data set: ATP assay. It counts as cell-based, rat. The following applies: 20 μM Aβ25-35 + PEP1. The source says: An ATP concentration was observed using an ATP determination kit and evaluated by an ELISA reader.
Data set [3] relates to GalC. Nature of the data set: GalC expression in 3XTg-AD mice (western blotting, immunostaining). Format: in vivo. As to conditions: hippocampus and whole brain; s.c. three times a week for two months; vs control and Donepezil, same amount. The procedure:
To test the efficacy of PEP1 on AD, AD transgenic mice (3XTg-AD) were purchased from Jackson Laboratory. Genetic characteristics of the transgenic mice are as follows: B6; 129-Psen1tm1Mpm Tg(APPSwe, tauP301L)1Lfa/Mmjax. […] One week after mice were confirmed as pregnant, new mice were delivered and weaned for 3 weeks. Two weeks later, mature mice were obtained.
During the preliminary breeding and the entire period of the experiment, a temperature was maintained at 23±2° C. and a relative humidity was maintained at 60±10%, and then the mice were raised under a 12-hour dark/light cycle. Experimental animals were divided into five groups, and each group included 10 animals. The divided experimental groups are as follows. […]
The PEP1, physiological saline, donepezil and scramble peptide were subcutaneously injected at each concentration three times a week for two months from the age of 12 months, and then two months after the injection, cognitive/memory behavior tests (passive avoidance test and Y maze test) were performed to examine a degree of improvement in cognitive function and memory function. After the brain was extracted to separate the hippocampus, the amounts of amyloid beta in the hippocampus and the whole brain, and the amounts of an amyloid beta oligomer and NFT generated by tau hyperphosphorylation were determined by western blotting and immunostaining. […]
For orientation: Immunoblotting shows a protein as a band on a membrane.

In data set [4] the test system is NSCs. Nature of the data set: Oxidative mitochondrial DNA damage (8-OHdG ELISA). It counts as cell-based, rat. The following applies: 20 μM Aβ25-35 + PEP1. The procedure: The oxidative DNA damage in the mitochondria was observed using an 8-OHdG ELISA kit. The mitochondria DNA was obtained using a genomic DNA isolation kit. 8-OHdG monoclonal antibodies were added to samples and a control group, and then corresponding HRP-attached secondary antibodies were added thereto. The samples were quantified using 8-OHdG and observed by measuring absorbance at 450 nm.
A general note: ELISA stands for enzyme-linked immunosorbent assay.

Data set [5] deals with NSCs. Nature of the data set: Mitochondria cell membrane potential (JC-1). It counts as cell-based, rat. The following applies: 20 μM Aβ25-35 + PEP1 1, 10, 50 μM, 48 hours. On the procedure: NSCs were plated in a 96-well plate at a density of 5×10^5 cells/well. The cells were treated with 20 μM Aβ25-30 and each concentration of PEP1 (1, 10 or 50 μM) at 37° C. for 48 hours.
The mitochondria cell membrane potential was measured using a JC-1 mitochondria cell membrane potential observation kit. The mitochondria cell membrane potential was observed using an ELISA reader. […] By observing dead cells or unhealthy cells at an FITC wavelength, it was confirmed that JC-1 is in a monomer state.

For data set [6] the following is noted: numerous clinical trials targeting various diseases; cited from earlier work.

With “EARPALLTSRLRFIPK (homo sapiens) [PEP1, hTERT-derived peptide consisting of 16 amino acids, telomerase location [611-626]]”, in data set [1], the apoptosis-associated proteins entry was “a low amount” and the proliferation-associated proteins entry is “a large amount”. In addition, the ATP level result in data set [2] is reported as “significantly restored”. Further, in data set [3], the Galc result is given as “increased”. Also, in data set [4], the “oxidative mitochondrial DNA damage” value was “effectively decreased”. In addition, the “mitochondria cell membrane potential” value in data set [5] is on record as “restored the cell membrane potential up to a level in a normal range”. For the same sequence, in data set [6], the “toxicity / side effects” value is “stable in terms of side effects”.

The record behind these values is patent US20180318383A1, “PEPTIDE HAVING NEURONAL LOSS PREVENTION AND REGENERATION EFFECTS, AND COMPOSITION CONTAINING SAME” (GEMVAX & KAEL CO., LTD., priority 2015, published 2018).
